Test results taken from patent US8961759B2, “Device and method for mitochondrial membrane potential assessment” (priority 2011, dated 2015).

Columns and labels:
[1] = system: human mitochondria (Heb7A); assay: Mitochondrial membrane potential assay with sensor device 1000, substrates and inhibitors added (FIG. 12); type: cell-based; details: isolated Heb7A mitochondria in respiration buffer, about 10 μM TPP+, sequential additions
Experimental: The voltmeter was linked to the computer via a GPIB interface (National Instrument, GPIB-USB-HS) for data communication. The voltage signal from the voltmeter was acquired using Labview software, so that simultaneous monitoring of the mitochondrial membrane potential could be achieved.
The evaluation of the mitochondrial membrane potential was performed with human mitochondria (Heb7A) in respiration buffer (225 mM mannitol, 75 mM sucrose, 10 mM KCl, 10 mM Tris-HCl, 5 mM KH2PO4, pH 7.2). The measurements were repeated 4 times with freshly prepared mitochondria to confirm the performance and the reproducibility of the sensor. […] 25 ng of isolated mitochondria in 85 μL was used for the test resulting in a final concentration of 0.29 ng/μL.
FIG. 11 illustrates an image of a complete sensor device 1000 showing the reference electrode 1015 and working electrode 1016 with arrows. The sensing chamber was filled with an initial volume of 71 μL respiration buffer. Once the plot baselined to zero, a 100 μM TPP^+Cl^− solution was added to provide a working concentration. The working concentration of TPP^+ was kept at about 10 μM to prevent inhibition of respiration. After stabilization, isolated mitochondria (5 ng μL/1) were added to the sensing chamber 1011.

[2] = value given for Equation 3; cited from earlier work
[3] = compared with DDA+; cited from earlier work

| SMILES | change in the magnitude of ΔΨm after addition [1] | partition coefficient, binding to the external face of the inner membrane (Ko) [2] | diffusion coefficient through mitochondrial membranes relative to other cations such as DDA+ [3] |
| --- | --- | --- | --- |
| C=C(C)[C@H]1Cc2c(ccc3c2O[C@@H]2COc4cc(OC)c(OC)cc4[C@@H]2C3=O)O1 [Rot] | slow decline in the magnitude of ΔΨm | – | – |
| c1ccc([P+](c2ccccc2)(c2ccccc2)c2ccccc2)cc1 [TPP^+, tetraphenylphosphonium] | – | 14.3 µL/mg | 15 times faster |
| O=C(O)CC(=O)O [malonate] | slow decrease in the magnitude of ΔΨm | – | – |
| O=C(O)CCC(=O)O [succinate] | increase the magnitude of ΔΨm | – | – |
